# Data reported in PubChem BioAssay AID1963842 (Molecular Pharmacology Branch, DTP, NCI, 2024).
# Test system: 677734-321-R-J1-PDC complex spheroid viability
# Experiment: Anticancer human tumor 677734-321-R-J1-PDC patient-derived soft tissue sarcoma cell line growth inhibition [POLQ]
# Conditions: for IC50: curve of first compound; for viability, T/C: stronger effect = lower value
# Summary of the method: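 Growth inhibition in 3D: complex spheroids (tumor PDC, HUVEC, MSC) treated with POLQ inhibitor combinations; where Cmax unknown, highest tested concentration 10 microM, except SN-38 at 1 microM.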
# 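Also: spheroids exposed to compounds for one week.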
# 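For viability, T/C in this document: 100% = vehicle DMSO treated spheroids.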
structure (smiles),measurement,setting,value
CC(C)n1c(=O)n(C)c2cnc3cc(F)c(-c4ccc(OCCCN5CCCCC5)nc4)cc3c21 + Nc1ccc(C#CCN(C(=O)Cc2ncc(C(F)(F)F)cc2C(F)(F)F)c2ccc(F)cc2)nn1,IC50,second compound 0.0316 µM,> 10 µM
same,IC50,second compound 0.1 µM,> 10 µM
same,IC50,second compound 0.316 µM,> 10 µM
same,IC50,second compound 1 µM,> 10 µM
same,IC50,second compound 3.16 µM,> 10 µM
same,IC50,second compound 10 µM,> 10 µM
same,"viability, T/C","second compound 0.0316 µM, first compound 0.0316 µM",94%
same,"viability, T/C","second compound 0.0316 µM, first compound 0.1 µM",106%
same,"viability, T/C","second compound 0.0316 µM, first compound 0.316 µM",103%
same,"viability, T/C","second compound 0.0316 µM, first compound 1 µM",97.1%
same,"viability, T/C","second compound 0.0316 µM, first compound 3.16 µM",87.7%
same,"viability, T/C","second compound 0.0316 µM, first compound 10 µM",101%
same,"viability, T/C","second compound 0.1 µM, first compound 0.0316 µM",99%
same,"viability, T/C","second compound 0.1 µM, first compound 0.1 µM",102%
same,"viability, T/C","second compound 0.1 µM, first compound 0.316 µM",92.2%
same,"viability, T/C","second compound 0.1 µM, first compound 1 µM",81.5%
same,"viability, T/C","second compound 0.1 µM, first compound 3.16 µM",72.6%
same,"viability, T/C","second compound 0.1 µM, first compound 10 µM",88.8%
same,"viability, T/C","second compound 0.316 µM, first compound 0.0316 µM",90.2%
same,"viability, T/C","second compound 0.316 µM, first compound 0.1 µM",92.7%
same,"viability, T/C","second compound 0.316 µM, first compound 0.316 µM",98%
same,"viability, T/C","second compound 0.316 µM, first compound 1 µM",112%
same,"viability, T/C","second compound 0.316 µM, first compound 3.16 µM",84.9%
same,"viability, T/C","second compound 0.316 µM, first compound 10 µM",94.2%
same,"viability, T/C","second compound 1 µM, first compound 0.0316 µM",109%
same,"viability, T/C","second compound 1 µM, first compound 0.1 µM",85.9%
same,"viability, T/C","second compound 1 µM, first compound 0.316 µM",93.6%
same,"viability, T/C","second compound 1 µM, first compound 1 µM",80.5%
same,"viability, T/C","second compound 1 µM, first compound 3.16 µM",84.9%
same,"viability, T/C","second compound 1 µM, first compound 10 µM",96.3%
same,"viability, T/C","second compound 3.16 µM, first compound 0.0316 µM",112%
same,"viability, T/C","second compound 3.16 µM, first compound 0.1 µM",102%
same,"viability, T/C","second compound 3.16 µM, first compound 0.316 µM",95%
same,"viability, T/C","second compound 3.16 µM, first compound 1 µM",105%
same,"viability, T/C","second compound 3.16 µM, first compound 3.16 µM",83.3%
same,"viability, T/C","second compound 3.16 µM, first compound 10 µM",103%
same,"viability, T/C","second compound 10 µM, first compound 0.0316 µM",85.3%
same,"viability, T/C","second compound 10 µM, first compound 0.1 µM",96.3%
same,"viability, T/C","second compound 10 µM, first compound 0.316 µM",93.3%
same,"viability, T/C","second compound 10 µM, first compound 1 µM",79.5%
same,"viability, T/C","second compound 10 µM, first compound 3.16 µM",93%
same,"viability, T/C","second compound 10 µM, first compound 10 µM",89.2%
